Test results published in ChEMBL document CHEMBL3112480, “γ-Alkylidene-γ-lactones and isobutylpyrrol-2(5H)-ones analogues to rubrolides as inhibitors of biofilm formation by gram-positive and gram-negative bacteria” (Bioorg Med Chem Lett, 2014).

Key:
Streptococcus mutans [1] = assay: Antibacterial activity against Streptococcus mutans ATCC 25175 assessed as effect on planktonic growth at 21.9 ug/ml after 20 hrs relative to control; format: functional
Streptococcus mutans [2] = assay: Antibacterial activity against Streptococcus mutans ATCC 25175 assessed as effect on planktonic growth at 43.8 ug/ml after 20 hrs relative to control; format: functional
Streptococcus mutans [3] = assay: Antibacterial activity against Streptococcus mutans ATCC 25175 assessed as effect on planktonic growth at 87.5 ug/ml after 20 hrs relative to control; format: functional
Staphylococcus aureus [4] = assay: Antibacterial activity against Staphylococcus aureus ATCC 25923 assessed as effect on planktonic growth at 0.17 ug/ml after 20 hrs relative to control; format: functional
Staphylococcus aureus [5] = assay: Antibacterial activity against Staphylococcus aureus ATCC 25923 assessed as effect on planktonic growth at 0.34 ug/ml after 20 hrs relative to control; format: functional
Staphylococcus aureus [6] = assay: Antibacterial activity against Staphylococcus aureus ATCC 25923 assessed as effect on planktonic growth at 0.68 ug/ml after 20 hrs relative to control; format: functional
Staphylococcus aureus [7] = assay: Antibacterial activity against Staphylococcus aureus ATCC 25923 assessed as effect on planktonic growth at 1.37 ug/ml after 20 hrs relative to control; format: functional
Staphylococcus aureus [8] = assay: Antibacterial activity against Staphylococcus aureus ATCC 25923 assessed as effect on planktonic growth at 5.5 ug/ml after 20 hrs relative to control; format: functional
Staphylococcus aureus [9] = assay: Antibacterial activity against Staphylococcus aureus ATCC 25923 assessed as effect on planktonic growth at 2.73 ug/ml after 20 hrs relative to control; format: functional
Staphylococcus aureus [10] = assay: Antibacterial activity against Staphylococcus aureus ATCC 25923 assessed as effect on planktonic growth at 10.9 ug/ml after 20 hrs relative to control; format: functional
Staphylococcus aureus [11] = assay: Antibacterial activity against Staphylococcus aureus ATCC 25923 assessed as effect on planktonic growth at 21.9 ug/ml after 20 hrs relative to control; format: functional
Staphylococcus aureus [12] = assay: Antibacterial activity against Staphylococcus aureus ATCC 25923 assessed as effect on planktonic growth at 43.8 ug/ml after 20 hrs relative to control; format: functional
Staphylococcus aureus [13] = assay: Antibacterial activity against Staphylococcus aureus ATCC 25923 assessed as effect on planktonic growth at 87.5 ug/ml after 20 hrs relative to control; format: functional
Pseudomonas aeruginosa [14] = assay: Antibacterial activity against Pseudomonas aeruginosa ATCC 27853 assessed as effect on planktonic growth at 0.17 ug/ml after 20 hrs relative to control; format: functional
Pseudomonas aeruginosa [15] = assay: Antibacterial activity against Pseudomonas aeruginosa ATCC 27853 assessed as effect on planktonic growth at 0.34 ug/ml after 20 hrs relative to control; format: functional
Pseudomonas aeruginosa [16] = assay: Antibacterial activity against Pseudomonas aeruginosa ATCC 27853 assessed as effect on planktonic growth at 0.68 ug/ml after 20 hrs relative to control; format: functional
Pseudomonas aeruginosa [17] = assay: Antibacterial activity against Pseudomonas aeruginosa ATCC 27853 assessed as effect on planktonic growth at 1.37 ug/ml after 20 hrs relative to control; format: functional
Pseudomonas aeruginosa [18] = assay: Antibacterial activity against Pseudomonas aeruginosa ATCC 27853 assessed as effect on planktonic growth at 2.73 ug/ml after 20 hrs relative to control; format: functional
Pseudomonas aeruginosa [19] = assay: Antibacterial activity against Pseudomonas aeruginosa ATCC 27853 assessed as effect on planktonic growth at 5.5 ug/ml after 20 hrs relative to control; format: functional
Pseudomonas aeruginosa [20] = assay: Antibacterial activity against Pseudomonas aeruginosa ATCC 27853 assessed as effect on planktonic growth at 10.9 ug/ml after 20 hrs relative to control; format: functional
Pseudomonas aeruginosa [21] = assay: Antibacterial activity against Pseudomonas aeruginosa ATCC 27853 assessed as effect on planktonic growth at 21.9 ug/ml after 20 hrs relative to control; format: functional
Pseudomonas aeruginosa [22] = assay: Antibacterial activity against Pseudomonas aeruginosa ATCC 27853 assessed as effect on planktonic growth at 43.8 ug/ml after 20 hrs relative to control; format: functional
Pseudomonas aeruginosa [23] = assay: Antibacterial activity against Pseudomonas aeruginosa ATCC 27853 assessed as effect on planktonic growth at 87.5 ug/ml after 20 hrs relative to control; format: functional
[24] = system: Staphylococcus epidermidis; assay: Antibacterial activity against Staphylococcus epidermidis ATCC 35547 assessed as effect on planktonic growth at 0.17 ug/ml after 20 hrs relative to control; format: functional
[25] = system: Staphylococcus epidermidis; assay: Antibacterial activity against Staphylococcus epidermidis ATCC 35547 assessed as effect on planktonic growth at 0.34 ug/ml after 20 hrs relative to control; format: functional
[26] = system: Staphylococcus epidermidis; assay: Antibacterial activity against Staphylococcus epidermidis ATCC 35547 assessed as effect on planktonic growth at 0.68 ug/ml after 20 hrs relative to control; format: functional
[27] = system: Staphylococcus epidermidis; assay: Antibacterial activity against Staphylococcus epidermidis ATCC 35547 assessed as effect on planktonic growth at 1.37 ug/ml after 20 hrs relative to control; format: functional
[28] = system: Staphylococcus epidermidis; assay: Antibacterial activity against Staphylococcus epidermidis ATCC 35547 assessed as effect on planktonic growth at 2.73 ug/ml after 20 hrs relative to control; format: functional
[29] = system: Staphylococcus epidermidis; assay: Antibacterial activity against Staphylococcus epidermidis ATCC 35547 assessed as effect on planktonic growth at 5.5 ug/ml after 20 hrs relative to control; format: functional
[30] = system: Staphylococcus epidermidis; assay: Antibacterial activity against Staphylococcus epidermidis ATCC 35547 assessed as effect on planktonic growth at 10.9 ug/ml after 20 hrs relative to control; format: functional
[31] = system: Staphylococcus epidermidis; assay: Antibacterial activity against Staphylococcus epidermidis ATCC 35547 assessed as effect on planktonic growth at 21.9 ug/ml after 20 hrs relative to control; format: functional
[32] = system: Staphylococcus epidermidis; assay: Antibacterial activity against Staphylococcus epidermidis ATCC 35547 assessed as effect on planktonic growth at 43.8 ug/ml after 20 hrs relative to control; format: functional
[33] = system: Staphylococcus epidermidis; assay: Antibacterial activity against Staphylococcus epidermidis ATCC 35547 assessed as effect on planktonic growth at 87.5 ug/ml after 20 hrs relative to control; format: functional
Pseudomonas aeruginosa [34] = assay: Induction of biofilm formation in Pseudomonas aeruginosa ATCC 27853 at 87.5 ug/ml after 20 hrs by crystal-violet staining method relative to control; format: organism-based
Pseudomonas aeruginosa [35] = assay: Antibacterial activity against Pseudomonas aeruginosa ATCC 27853 assessed as inhibition of biofilm formation after 20 hrs by crystal-violet staining method; format: functional, organism-based
[36] = system: Staphylococcus epidermidis; assay: Antibacterial activity against Staphylococcus epidermidis ATCC 35547 assessed as inhibition of biofilm formation after 20 hrs by crystal-violet staining method; format: functional, organism-based
Streptococcus mutans [37] = assay: Antibacterial activity against Streptococcus mutans ATCC 25175 assessed as effect on planktonic growth at 0.17 ug/ml after 20 hrs relative to control; format: functional
Streptococcus mutans [38] = assay: Antibacterial activity against Streptococcus mutans ATCC 25175 assessed as effect on planktonic growth at 0.34 ug/ml after 20 hrs relative to control; format: functional
Streptococcus mutans [39] = assay: Antibacterial activity against Streptococcus mutans ATCC 25175 assessed as effect on planktonic growth at 0.68 ug/ml after 20 hrs relative to control; format: functional
Streptococcus mutans [40] = assay: Antibacterial activity against Streptococcus mutans ATCC 25175 assessed as effect on planktonic growth at 1.37 ug/ml after 20 hrs relative to control; format: functional
Streptococcus mutans [41] = assay: Antibacterial activity against Streptococcus mutans ATCC 25175 assessed as effect on planktonic growth at 2.73 ug/ml after 20 hrs relative to control; format: functional
Streptococcus mutans [42] = assay: Antibacterial activity against Streptococcus mutans ATCC 25175 assessed as effect on planktonic growth at 5.5 ug/ml after 20 hrs relative to control; format: functional
Streptococcus mutans [43] = assay: Antibacterial activity against Streptococcus mutans ATCC 25175 assessed as effect on planktonic growth at 10.9 ug/ml after 20 hrs relative to control; format: functional

Activity (Pseudomonas aeruginosa [34]): 84.6%
IC50 ([36]; ATCC 35547, 20 h): > 87.5 µg/mL
Structure (SMILES): COc1cccc(/C=C2\C(c3cc(Cl)ccc3OC)=C(Br)C(=O)N2CC(C)C)c1
Activity (Streptococcus mutans [1]): 14.8%
Activity (Streptococcus mutans [2]): 44.1%
Activity (Streptococcus mutans [3]): 76.4%
Activity (Staphylococcus aureus [4]): 45.5%
Activity (Staphylococcus aureus [5]): 49.8%
Activity (Staphylococcus aureus [6]): 39.1%
Activity (Staphylococcus aureus [7]): 36.2%
Activity (Staphylococcus aureus [8]): 92.3%
Activity (Staphylococcus aureus [9]): 34%
Activity (Staphylococcus aureus [10]): 11.5%
Activity (Staphylococcus aureus [11]): 14%
Activity (Staphylococcus aureus [12]): 20.4%
Activity (Staphylococcus aureus [13]): 9.8%
Activity (Pseudomonas aeruginosa [14]): 18%
Activity (Pseudomonas aeruginosa [15]): 2.9%
Activity (Pseudomonas aeruginosa [16]): 0.3%
Activity (Pseudomonas aeruginosa [17]): -6.6%
Activity (Pseudomonas aeruginosa [18]): -5.3%
Activity (Pseudomonas aeruginosa [19]): 2.8%
Activity (Pseudomonas aeruginosa [20]): 8.8%
Activity (Pseudomonas aeruginosa [21]): 19.6%
Activity (Pseudomonas aeruginosa [22]): 24.2%
Activity (Pseudomonas aeruginosa [23]): 9.6%
Activity [24]: 0.7%
Activity [25]: 0.4%
Activity [26]: 0.3%
Activity [27]: 4.2%
Activity [28]: 1.5%
Activity [29]: 4.1%
Activity [30]: 12.7%
Activity [31]: 25.4%
Activity [32]: 44.9%
Activity [33]: 45.3%
inhibition (Pseudomonas aeruginosa [35]): Dose-dependent effect
inhibition [36]: Dose-dependent effect
Activity (Streptococcus mutans [37]): 2.2%
Activity (Streptococcus mutans [38]): 6.1%
Activity (Streptococcus mutans [39]): -1.7%
Activity (Streptococcus mutans [40]): -3.9%
Activity (Streptococcus mutans [41]): 3.5%
Activity (Streptococcus mutans [42]): 8.3%
Activity (Streptococcus mutans [43]): 17%
